# Results published in patent US12398110B2, “Second generation inhibitors of mitochondrial permeability transition pore with improved plasma stability” (Oregon Health & Science University, priority 2019, dated 2025).
# How the values were obtained:
# [1] = Plasma stability determination in mouse plasma; assay type: in vitro ADME
# Method: Plasma stability determination. The degradation of TR001 in the presence of mouse plasma (from Innovative Research) was used to predict the plasma stability of the compound to esterase catalyzed hydrolysis. A positive control for plasma cholinesterase, propantheline bromide, was included in all assays. Briefly, murine plasma was incubated with 1 μm TR001. Aliquots were removed at t=0, 5, 15, 30, and 60 and 120 min and quenched with acetonitrile containing structurally related compound (TR073) as the internal standard. The amount of TR001 remaining in the supernatant was assessed by LC-MS/MS in multiple reaction monitoring mode (MRM) using a 4000 QTRAP (SCIEX) with electrospray ionization source. The instrument was operated in negative mode with source parameters: source voltage […], GS1 50, GS2 50, CUR 30, TEM 650 and CAD gas MED. Optimal MRM transitions were obtained by direct infusion of the pure compound into the source. The mass spectrometer was interfaced to a Shimadzu (Columbia, MD) SIL-20AC XR auto-sampler maintained at 35° C. followed by 2 LC-20AD XR LC pumps. The internal standard and compound of interest were resolved using a Gemini-NX C18 50×2.1 mm column (Phenomenex) with 0.1% formic acid (solvent A) and 0.1% formic acid in acetonitrile (solvent B). The injection volume was 10 μL at a flow rate of 0.75 mL/min. The gradient elution was 10% B to 95% B over 5 min and held at 95% for 1 min before returning to start conditions. The column was maintained at 40° C. using a Shimadzu CTO-20AC column oven. Data were acquired using Analyst 1.6.2 and analyzed using Multiquant 3.0.1 software. The first-order rate constant for substrate depletion was determined from a linear least squares fit of the natural log of the percent parent compound remaining versus time. The rate constant was used to calculate the plasma half-life as an indicator of stability.
# [2] = tested on: col6a1 zebrafish morphants; assay: OCR measurement on entire col6a1 morphant zebrafish embryos; assay type: in vivo; details: 48 hpf, 10 μm
# From the text: To test the effects of both TR001 and 63 on the respiration of col6a1 morphant embryos, we measured the OCR on entire embryos at 48 hpf. […] Moreover, TR001 at a concentration of 10 μm was able to fully restore the maximal respiratory capacity (FIG. 6D, left panel, open diamonds, p<0.001) of col6a1 morphants.
# (§1) Morpholino antisense injection and treatment. Knock-down of col6a1 gene expression was obtained with a previously published morpholino ^[25] with sequence GAGAGCGGAAGACGAACCTTCATTC (SEQ ID NO: 2; GeneTools, Inc.). A control morpholino with no sequence homology in the zebrafish genome was used in parallel (CCTCTTACCTCAGTTACAATTTATA; SEQ ID NO: 3). Zebrafish eggs from wild-type matings were injected at the 1-2 cell stage with approximately 10 nL of 0.1 mm morpholino solution (corresponding to 4 ng of morpholino) using a WPI pneumatic PicoPump PV820 injector (World Precision Instruments, Inc.). […]
# OCR measurement. […] First, basal respiration was measured. Second, respiration due to ATP synthase was measured after addition of 10 μm oligomycin (Merck Millipore-495455). Third, maximal respiration capacity was measured by adding 2 μm of the uncoupler carbonyl cyanide-4-(trifluoromethoxy)phenylhydrazone (FCCP, Sigma-Aldrich, C2920). […]
# [3] = tested on: col6a1 zebrafish morphants; assay: Birefringence (muscle structure) in col6a1 zebrafish morphants; assay type: in vivo; details: 48 hpf
# Method: Muscle structure was assessed by birefringence analysis at 48 hpf, a time when muscle tissue is fully developed and organized muscle fibers start to show anisotropic features. A high percentage of severe birefringence abnormality (>75%, FIG. 6C) was detected in col6a1 morphants, indicating major defects of muscle fiber development and organization.
# as §1
# Birefringence. Muscle structure was monitored by birefringence analysis, taking advantage of muscle anisotropy, which is the ability of muscle fibers to refract polarized light. […] With this set-up, light refracted by muscle fibers (due to the pseudo-crystalline array of sarcomeres) is transmitted and analyzed. Integrated area of birefringence was calculated using ImageJ software. […]
structure (smiles),measurement,setting,value
"Cc1ccc(Cl)cc1NC(=O)c1cn(-c2ccc(F)c(O)c2)nn1 [TR001, N-(5-chloro-2-methylphenyl)-1-(4-fluoro-3-hydroxyphenyl)-1H-1,2,3-triazole-4-carboxamide]",fold increase in plasma stability compared to 63,[1]; TR001 vs 63,47 fold
same,half-life at 1 µM,"[1]; mouse, read-out: Mouse Plasma t1/2",16.5 h
same,maximal respiratory capacity (OCR) of col6a1 morphants,[2],fully restore
same,muscle structure by birefringence,[3],significantly rescued
